The values below come from ChEMBL document CHEMBL1201862, “PubChem BioAssay data set” (2004).

Test systems include SK-MEL-28; K562; LOX IMVI; 786-0; HT-29; NCI-H522; NCI/ADR-RES; HOP-62; SK-MEL-2; SNB-75; RPMI-8226; UACC-257; NCI-H23; A498; OVCAR-5; HCT-15; MOLT-4; NCI-H460; Hs-578T; U-251.
What all share (assay): inhibition of tumour cell growth, NCI panel, 48 h

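1) Cells in 96-well plates. 2) Compound, 48 h, 5 concentrations. 3) Linear interpolation between surrounding doses. 4) Unreached endpoint = highest concentration. The concentration for 50% growth inhibition is given as GI50.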 Activity calls are given as the source filed them. Rule as the data show it: active = GI50 up to about 1.1 µM and inactive = higher.

Turning to `NC(=O)c1ncn(C2OC(CO)C(O)C2O)c1NC=O` (stereo not given), the GI50 with SK-MEL-28, with K562, with LOX IMVI, in the assay on 786-0, in the assay on HT-29 and with NCI-H522 was > 100 µM (inactive) each time. Further, the GI50 with NCI/ADR-RES, in the assay on HOP-62, with SK-MEL-2, with SNB-75, with RPMI-8226 and with UACC-257 was > 100 µM (inactive) each time. Also, the GI50 with NCI-H23 is > 100 µM (inactive); in the assay on A498, > 100 µM (inactive); in the assay on OVCAR-5, > 100 µM (inactive); with HCT-15, > 100 µM; in the assay on MOLT-4 it was > 100 µM (inactive); with NCI-H460 it was > 100 µM (inactive). Further, the GI50 in the assay on Hs-578T and in the assay with U-251 was > 100 µM (inactive) each time.

Turning to `COC1OC(Cc2nnc(C)o2)C(OCc2ccccc2)C(OCc2ccccc2)C1OCc1ccccc1` (stereo not given), the GI50 in the assay on SK-MEL-28 is 22.9 µM (inactive); in the assay on K562 it was 20.9 µM (inactive); in the assay with LOX IMVI, 20.1 µM (inactive); in the assay on 786-0, 40.6 µM (inactive); with HT-29, 26.4 µM (inactive); in the assay with NCI-H522 it was 19.4 µM (inactive). The GI50 with NCI/ADR-RES is 24.3 µM (inactive); in the assay with HOP-62, 52.1 µM (inactive); in the assay with SK-MEL-2, 14.5 µM (inactive); with SNB-75, 74.3 µM (inactive); in the assay on RPMI-8226, 32.4 µM (inactive); in the assay with UACC-257, 17.2 µM (inactive). The GI50 with NCI-H23 is 19.9 µM (inactive); in the assay with A498, 50.9 µM (inactive); in the assay on OVCAR-5 it was 41.2 µM (inactive); in the assay with HCT-15, 35.9 µM; in the assay on MOLT-4, 16 µM (inactive); in the assay with NCI-H460, 26.4 µM (inactive). The GI50 in the assay with Hs-578T is 43 µM (inactive); in the assay on U-251, 38.4 µM (inactive).

On to `CC[N+](C)(CC)CCC(O)(c1ccccc1)c1ccccc1`, for which the GI50 in the assay on SK-MEL-28, in the assay with K562, in the assay with LOX IMVI, in the assay on 786-0, in the assay on HT-29 and with NCI-H522 was > 100 µM (inactive) each time. In addition, the GI50 with NCI/ADR-RES, in the assay on HOP-62, with SK-MEL-2, in the assay with SNB-75, with RPMI-8226 and with UACC-257 was > 100 µM (inactive) each time. Besides, the GI50 in the assay on NCI-H23 is > 100 µM (inactive); with A498, > 100 µM (inactive); in the assay on OVCAR-5, > 100 µM (inactive); in the assay with HCT-15, > 100 µM; in the assay with MOLT-4, > 100 µM (inactive); with NCI-H460, > 100 µM (inactive). The GI50 in the assay on Hs-578T and with U-251 was > 100 µM (inactive) throughout.

For the compound `Brc1ccc2[nH]cc(-c3csc(-c4ccccn4)n3)c2c1`, the GI50 was 53.1 µM (inactive) with SK-MEL-28; 5.38 µM (inactive) in the assay on K562; 8.69 µM (inactive) with LOX IMVI; 7.93 µM (inactive) in the assay on 786-0; 5.12 µM (inactive) with HT-29; 8.95 µM (inactive) with NCI-H522. Further, the GI50 in the assay on NCI/ADR-RES is > 100 µM (inactive); in the assay on HOP-62 it was 15.8 µM (inactive); with SK-MEL-2 it was 44.8 µM (inactive); in the assay on SNB-75, 16.9 µM (inactive); with RPMI-8226, 7.8 µM (inactive); in the assay on UACC-257 it was 23 µM (inactive). The GI50 with NCI-H23 was 47.4 µM (inactive); in the assay on A498, 3.39 µM (inactive); in the assay on OVCAR-5 it was > 51.1 µM (inactive); in the assay on HCT-15, 16.9 µM; in the assay on MOLT-4 it was 5.28 µM (inactive); in the assay with NCI-H460, 6.59 µM (inactive). Further, the GI50 in the assay with Hs-578T was > 75.2 µM (inactive); in the assay on U-251 it was 13.5 µM (inactive).

With `CCOC1=C(c2ccccc2)N2CCCCC2O1` (stereo not given), the GI50 in the assay with SK-MEL-28 is 12.3 µM (inactive); with K562 it was 2.03 µM (inactive); in the assay on LOX IMVI, 3.77 µM (inactive); in the assay on 786-0, 4.55 µM (inactive); with HT-29, 2.99 µM (inactive); in the assay with NCI-H522, 3.38 µM (inactive). Moreover, the GI50 is 23.7 µM (inactive) in the assay on NCI/ADR-RES; 4.6 µM (inactive) in the assay on HOP-62; 2.25 µM (inactive) in the assay with SK-MEL-2; 2.83 µM (inactive) in the assay with SNB-75; 1.5 µM (inactive) with RPMI-8226; 3.46 µM (inactive) with UACC-257. Also, the GI50 in the assay on NCI-H23 was 3.29 µM (inactive); in the assay on A498, 8.73 µM (inactive); in the assay with OVCAR-5, 3.94 µM (inactive); with HCT-15 it was 29 µM; with MOLT-4, 4.27 µM (inactive); in the assay on NCI-H460, 3.39 µM (inactive). Besides, the GI50 in the assay with Hs-578T is 6.12 µM (inactive); with U-251, 3.35 µM (inactive).

Regarding `C[N+](C)(C)C(Cc1c[nH]c(=S)[nH]1)C(=O)O` (stereo not given), the GI50 in the assay on SK-MEL-28, with K562, with LOX IMVI, in the assay with 786-0, in the assay with HT-29 and in the assay with NCI-H522 was > 100 µM (inactive) throughout. In addition, the GI50 in the assay on NCI/ADR-RES, in the assay on HOP-62, in the assay on SK-MEL-2, with SNB-75, with RPMI-8226 and in the assay with UACC-257 was > 100 µM (inactive) each time. The GI50 with NCI-H23 was > 100 µM (inactive); with A498, > 100 µM (inactive); in the assay on OVCAR-5, > 100 µM (inactive); in the assay with HCT-15 it was > 100 µM; in the assay with MOLT-4, > 100 µM (inactive); with NCI-H460 it was > 100 µM (inactive). For the same compound, the GI50 in the assay with Hs-578T and with U-251 was > 100 µM (inactive) in each case.

Turning to `O=C(/C=C/c1csc(-c2ccccc2)n1)NCc1ccc(C(=O)NCCc2ccccc2)cc1`, the GI50 with SK-MEL-28 was 24 µM (inactive); with K562, > 100 µM (inactive); in the assay with LOX IMVI, 79.4 µM (inactive); in the assay with 786-0, 8.63 µM (inactive); in the assay with HT-29, 5.09 µM (inactive); in the assay with NCI-H522 it was 34.6 µM (inactive). Moreover, the GI50 in the assay with NCI/ADR-RES is 11.6 µM (inactive); in the assay with HOP-62, 2.64 µM (inactive); with SK-MEL-2, 32 µM (inactive); in the assay with SNB-75 it was 2.6 µM (inactive); with RPMI-8226, > 100 µM (inactive); in the assay with UACC-257, 27.2 µM (inactive). Moreover, the GI50 in the assay with NCI-H23 was 29.7 µM (inactive); in the assay with A498, 19.8 µM (inactive); with OVCAR-5, 73.3 µM (inactive); in the assay with HCT-15 it was 93.5 µM; in the assay with MOLT-4 it was > 100 µM (inactive); in the assay with NCI-H460, 55.3 µM (inactive). Also, the GI50 in the assay on Hs-578T was 7.05 µM (inactive); with U-251, 5.16 µM (inactive).
